Test results: patent US11555014B2, “High penetration prodrug compositions of prostaglandins and related compounds” (Techfields Pharma Co., Ltd., priority 2006, dated 2023)

Assays:
[1] = pH 7.4
Description: The penetration rates of HPPs and their parent drugs through human skin were measured in vitro by modified Franz cells. The Franz cells have two chambers, the top sample chamber and the bottom receiving chamber. The human skin tissue (360-400 μm thick) that separates the top and the receiving chambers was isolated from the anterior or posterior thigh areas.
The compound tested (2 mL, 20% in 0.2 M phosphate buffer, pH. 7.4) were added to the sample chamber of a Franz cell. The receiving chamber contains 10 ml of 2% bovine serum albumin in saline which was stirred at 600 rpm. The cumulative amounts of the tested compounds penetrating the skin versus time were determined by high-performance liquid chromatography (HPLC) method.

Solubility in water = type: physicochemical
Description: 37.7 g (0.1 mol) of sodium 11,15-dihydroxy-9-oxoprost-13-en-1-oate was dissolved in 100 ml of acetonitrile. 26.1 g (0.1 mol) of 2-Bromo-N,N-diethylethylamine.HBr and 8.6 g of sodium bicarbonate were added into the reaction mixture. The mixture was stirred for overnight at RT. The solvents were evaporated off. 250 ml of ethyl acetate was added into the reaction mixture and the mixture was washed with water (3×100 ml). The organic solution was dried over anhydrous sodium sulfate. Sodium sulfate was removed by filtration. 6 g of acetic acid was added into the reaction mixture with stirring. Hexane (200 ml) was added. The solid product was collected by filtration. After drying, it yielded 42 g of the desired product (81.8%). Hygroscopic product; Solubility in water: 100 mg/ml; Elementary analysis: C28H51NO7; MW: 513.37. Calculated % C, 65.47; H, 10.01; N, 2.73; O, 21.80. Found % C, 65.42; H, 10.03; N, 2.70; O, 21.85.
43.7 g (0.1 mol) of 11,15-diacetoxy-9-oxoprosta-5,13-dien-1-oic acid was dissolved in 300 ml of chloroform. 20.6 g of N,N′-Dicyclohexylcarbodiimide was added into the reaction mixture. 11.7 g of N,N-diethylaminoethylamine was added into the reaction mixture. The mixture was stirred for 3 hours at RT. The solid was removed by filtration. The chloroform solution was washed with 5% NaHCO3 (2×100 ml) and water (3×100 ml). The organic solution was dried over anhydrous sodium sulfate. Sodium sulfate was removed by filtration. 6 g of acetic acid was added into the reaction mixture with stirring. Hexane (200 ml) was added. The solid product was collected by filtration. After drying, it yielded 45 g of the desired product (85.8%). Hygroscopic product; Solubility in water: 100 mg/ml; Elementary analysis: C34H59NO9S; MW: 657.90. Calculated % C, 62.07; H, 9.04; N, 2.13; O, 21.89; S, 4.87. Found % C, 62.02; H, 9.06; N, 2.11; O, 21.95; S, 4.86.
49.9 g (0.1 mol) of 9,11,15-triacetoxyprost-13-en-1-oic acid was dissolved in 300 ml of chloroform. 20.6 g of N,N′-Dicyclohexylcarbodiimide was added into the reaction mixture. 13.1 g of dimethylaminoethyl mercaptan was added into the reaction mixture. The mixture was stirred for 3 hours at RT. The solid was removed by filtration. The chloroform solution was washed with 5% NaHCO3 (2×100 ml) and water (3×100 ml). The organic solution was dried over anhydrous sodium sulfate. Sodium sulfate was removed by filtration. 6 g of acetic acid was added into the reaction mixture with stirring. Hexane (200 ml) was added. The solid product was collected by filtration. After drying, it yielded 45 g of the desired product (85.8%). Hygroscopic product; Solubility in water: 100 mg/ml; Elementary analysis: C32H53NO9; MW: […] Calculated % C, 64.51; H, 8.97; N, 2.35; O, 24.17. Found % C, 64.47; H, 8.99; N, 2.34; O, 24.20.
37.7 g (0.1 mol) of sodium 9,11,15-trihydroxyprosta-5,13-dien-1-oate was dissolved in 100 ml of acetonitrile. 39 g (0.15 mol) of 2-Bromo-N,N-diethylethylamine.HBr in ethyl acetate was added into the reaction mixture. The mixture was stirred for 3 h at RT. Then 8 g of sodium bicarbonate was added into the reaction mixture. The mixture is stirred for another 2 h at RT. The solvents were evaporated off. 250 ml of ethyl acetate was added into the reaction mixture and the mixture was washed with water (3×100 ml). The organic solution was dried over anhydrous sodium sulfate. Sodium sulfate was removed by filtration. 6 g of acetic acid was added into the reaction mixture with stirring. […] Calculated % C, 65.47; H, 10.01; N, 2.73; O, 21.80. […]

In vitro penetration rate (apparent flux), prodrug compounds [1]: 0.80 mg/cm^2/h | Solubility in water (Solubility in water): 100 mg/mL
Compound: CC(=O)O.CCCCCC(C)(O)C=C[C@H]1C(O)CC(O)[C@@H]1CC=CCCCC(=O)OCCN(CC)CC (some centres unmarked) [N,N-diethylaminoethyl 9,11,15-trihydroxy-15-methylprosta-5,13-dien-1-oate.AcOH]
